The values below come from patent US7514443B2, “Substituted pyrazolo[1,5-a]pyrimidines as inhibitors of metabotropic glutamate receptors” (Hoffmann-La Roche Inc., priority 2003, dated 2009).

As usually defined, the melting point is the temperature of the solid-liquid transition.

Compound `Cc1cc(-c2cc(C(F)(F)F)n3ncc(C#N)c3n2)ccc1Cl` [Example 1.15, 5-(4-Chloro-3-methyl-phenyl)-7-trifluoromethyl-pyrazolo[1,5-a]pyrimidine-3-carbonitrile] yielded a melting point of 216 °C.

Turning to `Cc1ccc(-c2cc(C(F)(F)F)n3cnc(-c4cccnc4)c3n2)cc1C(F)(F)F` [Example 8.7, 2-(4-Methyl-3-trifluoromethyl-phenyl)-8-pyridin-3-yl-4-trifluoromethyl-imidazo[1,5-a]pyrimidine], the melting point stood at 236 °C.

Turning to `N#Cc1cnn2c(C(F)(F)F)cc(-c3cccc(Cl)c3)nc12` [Example 1.1, 5-(3-Chloro-phenyl)-7-trifluoromethyl-pyrazolo[1,5-a]pyrimidine-3-carbonitrile], the melting point stood at 204 °C.

For `Cc1cc(-c2cnn3c(C(F)(F)F)cc(-c4ccc(F)c(Cl)c4)nc23)cc(C)n1` [Example 4.21, 5-(3-Chloro-4-fluoro-phenyl)-3-(2,6-dimethyl-pyridin-4-yl)-7-trifluoromethyl-pyrazolo[1,5-a]pyrimidine], the melting point turned out to be 271 °C.

For `Cc1ccc(-c2cc(C(F)(F)F)n3ncc(-c4cccnc4)c3n2)cc1C(F)(F)F` [Example 4.26, 5-(4-Methyl-3-trifluoromethyl-phenyl)-3-pyridin-3-yl-7-trifluoromethyl-pyrazolo[1,5-a]pyrimidine], the melting point stood at 182 °C.

With `FC(F)(F)c1cc(-c2ccc(Cl)cc2)nc2c(-c3cccnc3)ncn12` [Example 8.2, 2-(4-Chloro-phenyl)-8-pyridin-3-yl-4-trifluoromethyl-imidazo[1,5-a]pyrimidine], the melting point stood at 206 °C.

Regarding `N#Cc1ncn2c(C(F)(F)F)cc(-c3ccc(C(F)(F)F)cc3)nc12` [Example 5.10, 2-(4-Trifluoromethyl-phenyl)-4-trifluoromethyl-imidazo[1,5-a]pyrimidine-8-carbonitrile], the melting point came to 236 °C.

As for `Cc1cc(-c2cnn3c(C(F)F)cc(-c4ccc(C(F)(F)F)c(C)c4)nc23)ccn1` [Example 9.4, 7-Difluoromethyl-3-(2-methyl-pyridin-4-yl)-5-(3-methyl-4-trifluoromethyl-phenyl)-pyrazolo[1,5-a]pyrimidine], the melting point was 221 °C.

Turning to `FC(F)(F)c1ccc(-c2cc(C(F)(F)F)n3cnc(-c4cccnc4)c3n2)cc1` [Example 8.6, 8-Pyridin-3-yl-4-trifluoromethyl-2-(4-trifluoromethyl-phenyl)-imidazo[1,5-a]pyrimidine], the melting point came to 231 °C.

`Cc1cc(-c2cc(C(F)(F)F)n3ncc(-c4ccnc(CO)c4)c3n2)ccc1C(F)(F)F` [Example 6.2, 5-(3-Methyl-4-trifluoromethyl-phenyl)-3-(2-hydroxymethyl-pyridin-4-yl)-7-trifluoromethyl-pyrazolo[1,5-a]pyrimidine] registered a melting point of 231 °C.

Take `FC(F)(F)c1ccc(-c2cc(C(F)(F)F)n3cnc(-c4ccncc4)c3n2)cc1` [Example 8.14, 8-Pyridin-4-yl-4-trifluoromethyl-2-(4-trifluoromethyl-phenyl)-imidazo[1,5-a]pyrimidine]: the melting point is 240 °C.

Turning to `N#Cc1ncn2c(C(F)(F)F)cc(-c3ccncc3)nc12` [Example 5.27, 2-Pyridin-4-yl-4-trifluoromethyl-imidazo[1,5-a]pyrimidine-8-carbonitrile], the melting point was found to be 254 °C.

With `Cc1cc(-c2ncn3c(C(F)(F)F)cc(-c4cccc(C(F)(F)F)c4)nc23)ccn1` [Example 8.25, 8-(2-Methyl-pyridin-4-yl)-4-trifluoromethyl-2-(3-trifluoromethyl-phenyl)-imidazo[1,5-a]pyrimidine], the melting point worked out at 234 °C.

As to `Cc1cc(-c2cc(C(F)(F)F)n3cnc(-c4cccnc4)c3n2)ccc1C(F)(F)F` [Example 8.8, 2-(3-Methyl-4-trifluoromethyl-phenyl)-8-pyridin-3-yl-4-trifluoromethyl-imidazo[1,5-a]pyrimidine], the melting point was determined as 173 °C.

Take `COc1ccc(-c2cc(C(F)F)n3ncc(-c4ccncc4)c3n2)cc1` [Example 9.5, 7-Difluoromethyl-5-(4-methoxy-phenyl)-3-pyridin-4-yl-pyrazolo[1,5-a]pyrimidine]: the melting point turned out to be 206 °C.

In turn, `Cc1cc(-c2cc(C(F)(F)F)n3cnc(-c4ccncc4)c3n2)ccc1Cl` [Example 8.10, 2-(4-Chloro-3-methyl-phenyl)-8-pyridin-4-yl-4-trifluoromethyl-imidazo[1,5-a]pyrimidine] showed a melting point of 254 °C.

Compound `N#Cc1ncn2c(C(F)(F)F)cc(-c3ccccc3)nc12` [Example 5.1, 2-Phenyl-4-trifluoromethyl-imidazo[1,5-a]pyrimidine-8-carbonitrile] returned a melting point of 202 °C.

The compound `COc1ccc(-c2cc(C(F)(F)F)n3cnc(C#N)c3n2)cc1` [Example 5.5, 2-(4-Methoxy-phenyl)-4-trifluoromethyl-imidazo[1,5-a]pyrimidine-8-carbonitrile] yielded a melting point of 192 °C.

As for `Cc1nn2c(C(F)(F)F)cc(-c3ccc(Cl)cc3)nc2c1C#N` [Example 2.3, 5-(4-Chloro-phenyl)-2-methyl-7-trifluoromethyl-pyrazolo[1,5-a]pyrimidine-3-carbonitrile], the melting point worked out at 238 °C.

For `N#Cc1ncn2c(C(F)(F)F)cc(-c3ccc(OCC(F)(F)F)c(C(F)(F)F)c3)nc12` [Example 5.24, 2-(4-Trifluoroethoxy-3-trifluoromethyl-phenyl)-4-trifluoromethyl-imidazo[1,5-a]pyrimidine-8-carbonitrile], the melting point was determined as 189 °C.

In the case of `Cc1cccc(-c2cc(C(F)(F)F)n3ncc(C#N)c3n2)c1` [Example 1.5, 5-(3-Methyl-phenyl)-7-trifluoromethyl-pyrazolo[1,5-a]pyrimidine-3-carbonitrile], the melting point was determined as 202 °C.

Compound `Fc1ccc(-c2cc(C(F)(F)F)n3cnc(-c4cccnc4)c3n2)cc1Cl` [Example 8.3, 2-(3-Chloro-4-fluoro-phenyl)-8-pyridin-3-yl-4-trifluoromethyl-imidazo[1,5-a]pyrimidine] returned a melting point of 188 °C.

For `Cc1cc(-c2ncn3c(C(F)(F)F)cc(-c4ccc(Cl)c(C)c4)nc23)ccn1` [Example 8.21, 2-(4-Chloro-3-methyl-phenyl)-8-(2-methyl-pyridin-4-yl)-4-trifluoromethyl-imidazo[1,5-a]pyrimidine], the melting point is 246 °C.

As to `Fc1cc(-c2cc(C(F)(F)F)n3ncc(-c4cccnc4)c3n2)ccc1C(F)(F)F` [Example 4.18, 5-(3-Fluoro-4-trifluoromethyl-phenyl)-3-pyridin-3-yl-7-trifluoromethyl-pyrazolo[1,5-a]pyrimidine], the melting point stood at 162 °C.

In turn, `Cc1cc(-c2cc(C(F)(F)F)n3cnc(C#N)c3n2)ccc1C(F)(F)F` [Example 5.23, 2-(3-Methyl-4-trifluoromethyl-phenyl)-4-trifluoromethyl-imidazo[1,5-a]pyrimidine-8-carbonitrile] showed a melting point of 217 °C.

`FC(F)(F)COc1ccc(-c2cc(C(F)(F)F)n3ncc(-c4cccnc4)c3n2)cc1C(F)(F)F` [Example 4.42, 5-(4-Trifluoroethoxy-3-trifluoromethyl-phenyl)-3-pyridin-3-yl-7-trifluoromethyl-pyrazolo[1,5-a]pyrimidine] yielded a melting point of 181 °C.

In the case of `CCOc1ccc(-c2cc(C(F)(F)F)n3cnc(-c4ccncc4)c3n2)cc1C(F)(F)F` [Example 8.17, 2-(4-Ethoxy-3-trifluoromethyl-phenyl)-8-pyridin-4-yl-4-trifluoromethyl-imidazo[1,5-a]pyrimidine], the melting point worked out at 244 °C.

Compound `FC(F)(F)COc1ccc(-c2cc(C(F)(F)F)n3cnc(-c4ccncc4)c3n2)cc1C(F)(F)F` [Example 8.18, 8-Pyridin-4-yl-2-[4-(2,2,2-trifluoro-ethoxy)-3-trifluoromethyl-phenyl]-4-trifluoromethyl-imidazo[1,5-a]pyrimidine] came in with a melting point of 269 °C.

`FC(F)(F)c1cc(-c2ccc(Cl)cc2)nc2c(-c3ccncc3)ncn12` [Example 8.9, 2-(4-Chloro-phenyl)-8-pyridin-4-yl-4-trifluoromethyl-imidazo[1,5-a]pyrimidine] displayed a melting point of 290 °C.

With `Fc1ccc(-c2cc(C(F)(F)F)n3ncc(-c4ccccn4)c3n2)cc1Cl` [Example 4.8, 5-(3-Chloro-4-fluoro-phenyl)-3-pyridin-2-yl-7-trifluoromethyl-pyrazolo[1,5-a]pyrimidine], the melting point was 197 °C.

In turn, `Cc1cc(-c2cnn3c(C(F)(F)F)cc(-c4ccc(Cl)cc4)nc23)ccn1` [Example 4.29, 5-(4-Chloro-phenyl)-3-(2-methyl-pyridin-4-yl)-7-trifluoromethyl-pyrazolo[1,5-a]pyrimidine] had a melting point of 220 °C.

Take `Cc1ccc(-c2cc(C(F)(F)F)n3cnc(-c4ccncc4)c3n2)cc1C(F)(F)F` [Example 8.16, 2-(4-Methyl-3-trifluoromethyl-phenyl)-8-pyridin-4-yl-4-trifluoromethyl-imidazo[1,5-a]pyrimidine]: the melting point stood at 222 °C.

On to `Cc1ccccc1-c1cc(C(F)(F)F)n2cnc(C#N)c2n1` [Example 5.8, 2-(2-Methyl-phenyl)-4-trifluoromethyl-imidazo[1,5-a]pyrimidine-8-carbonitrile], for which the melting point came out at 151 °C.

Take `Cc1cc(-c2cc(C(F)(F)F)n3ncc(-c4ccncc4)c3n2)ccc1C(F)(F)F` [Example 4.37, 5-(3-Methyl-4-trifluoromethyl-phenyl)-3-pyridin-4-yl-7-trifluoromethyl-pyrazolo[1,5-a]pyrimidine]: the melting point turned out to be 227 °C.

As for `Cc1cc(-c2ncn3c(C(F)(F)F)cc(-c4ccc(C(F)(F)F)c(C(F)(F)F)c4)nc23)ccn1` [Example 8.35, 2-(3,4-Bis-trifluoromethyl-phenyl)-8-(2-methyl-pyridin-4-yl)-4-trifluoromethyl-imidazo[1,5-a]pyrimidine], the melting point amounted to 218 °C.

Take `N#Cc1cnn2c(C(F)(F)F)cc(-c3ccccn3)nc12` [Example 1.20, 5-Pyridin-2-yl-7-trifluoromethyl-pyrazolo[1,5-a]pyrimidine-3-carbonitrile]: the melting point is 208 °C.
